Values joined by “and” are separate entries in the source; they are usually repeats but may differ in a detail not shown here. Equal entries are not always repeated.
These substances were tested on hGH-RH(1-29)NH2 induced GH release (assay: Inhibition of GH release in superfused rat pituitary system). Settings: antagonist 30 nM; 1 nM hGH-RH(1-29)NH2 at 0 min.
Assay type: cell-based
Procedure: The analogs were tested in vitro in a test described earlier (S. Vigh and A. V Schally, Peptides 5:241-[…], 1984) with modification (Z. Rekasi and A. V. Schally, P.N.A.S. 90:2146-2149, 1993).
Briefly, the cells are preincubated with peptides for 9 minutes (3 mL) at various concentrations. Immediately after the incubation, 1 nM hGH-RH(1-29)NH2 is administered for 3 minutes (1 mL) 10 minute response). To check the duration of the antagonistic effect of the analogue, 1 nM hGH-RH(1-29)NH2 is applied 30, 60, 90, and 120 minutes later for 3 minutes [30, 60, 90, 120 min responses]. Net integral values of the GH responses are evaluated. GH responses are compared to and expressed as percent of the original GH response induced by 1 nM GH-RH(1-29)NH2 The effect of the new antagonists are compared to that of [Ac-Tyr^1, D-Arg^2]hGH-RH(1-29)NH2, the “Standard antagonist”.
Rat GH levels in aliquots of undiluted and diluted superfusion samples were measured by double-antibody radioimmunoassay using materials supplied by the National Hormone and Pituitary Program, Baltimore, Md. The results of RIA were analyzed with a computer program developed in our institute (V. Csernus and A. V. Schally, in Neuroendocrine Research Methods, Harwood Academic (Greenstein, B. D. ed., London, pp. 71-109, 1991), hereby incorporated by reference.

| Substance | GH response (% of control) 0 min |
| --- | --- |
| [PhAc-Tyr^1, D-Arg^2, Phe(pCl)^6, Har^9, Tyr(Me)^10, Amp^11, Abu^15, Nle^27, D-Arg^28, Har^29]hGH-RH(1-29)NH2 [Peptide 64] | 59 % of control |
| [Hca-Tyr^1, D-Arg^2, Phe(pCl)^6, Har^9, Tyr(Me)^10, Abu^15, Nle^27, D-Arg^28, Har^29, D-Arg^30]hGH-RH(1-29)NH2 [Peptide 58] | 78 % of control and 94 % of control and 64 % of control |
| [PhAc-Tyr^1, D-Arg^2, Phe(pCl)^6, Cit^8, Arg^9, Abu^15, Nle^27, Har^28, D-Arg^29]hGH-RH(1-29)NH2 [Peptide 23] | 55 % of control |
| [PhAc-Tyr^1, D-Arg^2, Phe(pCl)^6, Har^9, 3-Pal^10, Abu^15, Nle^27, D-Arg^28, Har^29]hGH-RH(1-29)NH2 [Peptide 40] | 42 % of control |
| [PhAc-D-Arg^0, D-Arg^2, Phe(pCl)^6, Arg^9, Abu^15, Nle^27, D-Arg^28, Har^29]hGH-RH(1-29)NH2 [Peptide 19] | 62 % of control |
| [Hca-Tyr^1, D-Arg^2, Phe(pCl)^6, Har^9, Tyr(Me)^10, Abu^15, Nle^27, D-Arg^28, Har^29, Agm^30]hGH-RH(1-30) [Peptide 59] | 72 % of control and 61 % of control and 93 % of control and 47 % of control |
| [HOOC(CH2)4CO-Tyr^1, D-Arg^2, Phe(pCl)^6, Arg^9, Abu^15, Nle^27, D-Arg^28, Har^29]hGH-RH(1-29)NH2 [Peptide 3] | 52 % of control |
| [PhAc-Arg^0, D-Arg^2, Phe(pCl)^6, Arg^9, Abu^15, Nle^27, D-Arg^28, Har^29]hGH-RH(1-29)NH2 [Peptide 18] | 21 % of control |

Same assay, conditions: antagonist 30 nM; 1 nM hGH-RH(1-29)NH2 at 30 min

| Substance | GH response (% of control) 30 min |
| --- | --- |
| [PhAc-Tyr^1, D-Arg^2, Phe(pCl)^6, Har^9, Tyr(Me)^10, Amp^11, Abu^15, Nle^27, D-Arg^28, Har^29]hGH-RH(1-29)NH2 [Peptide 64] | 54 % of control |
| [Hca-Tyr^1, D-Arg^2, Phe(pCl)^6, Har^9, Tyr(Me)^10, Abu^15, Nle^27, D-Arg^28, Har^29, D-Arg^30]hGH-RH(1-29)NH2 [Peptide 58] | 53 % of control and 41 % of control |
| [PhAc-Tyr^1, D-Arg^2, Phe(pCl)^6, Cit^8, Arg^9, Abu^15, Nle^27, Har^28, D-Arg^29]hGH-RH(1-29)NH2 [Peptide 23] | 40 % of control |
| [PhAc-Tyr^1, D-Arg^2, Phe(pCl)^6, Har^9, 3-Pal^10, Abu^15, Nle^27, D-Arg^28, Har^29]hGH-RH(1-29)NH2 [Peptide 40] | 29 % of control |
| [PhAc-D-Arg^0, D-Arg^2, Phe(pCl)^6, Arg^9, Abu^15, Nle^27, D-Arg^28, Har^29]hGH-RH(1-29)NH2 [Peptide 19] | 64 % of control |
| [Hca-Tyr^1, D-Arg^2, Phe(pCl)^6, Har^9, Tyr(Me)^10, Abu^15, Nle^27, D-Arg^28, Har^29, Agm^30]hGH-RH(1-30) [Peptide 59] | 49 % of control and 50 % of control and 43 % of control and 27 % of control |
| [HOOC(CH2)4CO-Tyr^1, D-Arg^2, Phe(pCl)^6, Arg^9, Abu^15, Nle^27, D-Arg^28, Har^29]hGH-RH(1-29)NH2 [Peptide 3] | 61 % of control |
| [PhAc-Arg^0, D-Arg^2, Phe(pCl)^6, Arg^9, Abu^15, Nle^27, D-Arg^28, Har^29]hGH-RH(1-29)NH2 [Peptide 18] | 71 % of control |

Same assay, conditions: antagonist 30 nM; 1 nM hGH-RH(1-29)NH2 at 60 min

| Substance | GH response (% of control) 60 min |
| --- | --- |
| [PhAc-Tyr^1, D-Arg^2, Phe(pCl)^6, Har^9, Tyr(Me)^10, Amp^11, Abu^15, Nle^27, D-Arg^28, Har^29]hGH-RH(1-29)NH2 [Peptide 64] | 70 % of control |
| [Hca-Tyr^1, D-Arg^2, Phe(pCl)^6, Har^9, Tyr(Me)^10, Abu^15, Nle^27, D-Arg^28, Har^29, D-Arg^30]hGH-RH(1-29)NH2 [Peptide 58] | 56 % of control and 57 % of control and 59 % of control |
| [PhAc-Tyr^1, D-Arg^2, Phe(pCl)^6, Cit^8, Arg^9, Abu^15, Nle^27, Har^28, D-Arg^29]hGH-RH(1-29)NH2 [Peptide 23] | 41 % of control |
| [PhAc-Tyr^1, D-Arg^2, Phe(pCl)^6, Har^9, 3-Pal^10, Abu^15, Nle^27, D-Arg^28, Har^29]hGH-RH(1-29)NH2 [Peptide 40] | 26 % of control |
| [PhAc-D-Arg^0, D-Arg^2, Phe(pCl)^6, Arg^9, Abu^15, Nle^27, D-Arg^28, Har^29]hGH-RH(1-29)NH2 [Peptide 19] | 66 % of control |
| [Hca-Tyr^1, D-Arg^2, Phe(pCl)^6, Har^9, Tyr(Me)^10, Abu^15, Nle^27, D-Arg^28, Har^29, Agm^30]hGH-RH(1-30) [Peptide 59] | 46 % of control and 48 % of control and 60 % of control and 37 % of control |
| [HOOC(CH2)4CO-Tyr^1, D-Arg^2, Phe(pCl)^6, Arg^9, Abu^15, Nle^27, D-Arg^28, Har^29]hGH-RH(1-29)NH2 [Peptide 3] | 56 % of control |
| [PhAc-Arg^0, D-Arg^2, Phe(pCl)^6, Arg^9, Abu^15, Nle^27, D-Arg^28, Har^29]hGH-RH(1-29)NH2 [Peptide 18] | 61 % of control |

Same assay, conditions: antagonist 30 nM; 1 nM hGH-RH(1-29)NH2 at 90 min

| Substance | GH response (% of control) 90 min |
| --- | --- |
| [PhAc-Tyr^1, D-Arg^2, Phe(pCl)^6, Har^9, Tyr(Me)^10, Amp^11, Abu^15, Nle^27, D-Arg^28, Har^29]hGH-RH(1-29)NH2 [Peptide 64] | 50 % of control |
| [Hca-Tyr^1, D-Arg^2, Phe(pCl)^6, Har^9, Tyr(Me)^10, Abu^15, Nle^27, D-Arg^28, Har^29, D-Arg^30]hGH-RH(1-29)NH2 [Peptide 58] | 47 % of control and 64 % of control and 50 % of control |
| [PhAc-Tyr^1, D-Arg^2, Phe(pCl)^6, Cit^8, Arg^9, Abu^15, Nle^27, Har^28, D-Arg^29]hGH-RH(1-29)NH2 [Peptide 23] | 47 % of control |
| [PhAc-Tyr^1, D-Arg^2, Phe(pCl)^6, Har^9, 3-Pal^10, Abu^15, Nle^27, D-Arg^28, Har^29]hGH-RH(1-29)NH2 [Peptide 40] | 36 % of control |
| [PhAc-D-Arg^0, D-Arg^2, Phe(pCl)^6, Arg^9, Abu^15, Nle^27, D-Arg^28, Har^29]hGH-RH(1-29)NH2 [Peptide 19] | 82 % of control |
| [Hca-Tyr^1, D-Arg^2, Phe(pCl)^6, Har^9, Tyr(Me)^10, Abu^15, Nle^27, D-Arg^28, Har^29, Agm^30]hGH-RH(1-30) [Peptide 59] | 38 % of control and 47 % of control and 57 % of control and 44 % of control |
| [HOOC(CH2)4CO-Tyr^1, D-Arg^2, Phe(pCl)^6, Arg^9, Abu^15, Nle^27, D-Arg^28, Har^29]hGH-RH(1-29)NH2 [Peptide 3] | 70 % of control |
| [PhAc-Arg^0, D-Arg^2, Phe(pCl)^6, Arg^9, Abu^15, Nle^27, D-Arg^28, Har^29]hGH-RH(1-29)NH2 [Peptide 18] | 75 % of control |

Same assay, conditions: antagonist 30 nM; 1 nM hGH-RH(1-29)NH2 at 120 min

| Substance | GH response (% of control) 120 min |
| --- | --- |
| [PhAc-Tyr^1, D-Arg^2, Phe(pCl)^6, Har^9, Tyr(Me)^10, Amp^11, Abu^15, Nle^27, D-Arg^28, Har^29]hGH-RH(1-29)NH2 [Peptide 64] | 56 % of control |
| [Hca-Tyr^1, D-Arg^2, Phe(pCl)^6, Har^9, Tyr(Me)^10, Abu^15, Nle^27, D-Arg^28, Har^29, D-Arg^30]hGH-RH(1-29)NH2 [Peptide 58] | 64 % of control and 69 % of control |
| [PhAc-Tyr^1, D-Arg^2, Phe(pCl)^6, Cit^8, Arg^9, Abu^15, Nle^27, Har^28, D-Arg^29]hGH-RH(1-29)NH2 [Peptide 23] | 41 % of control |
| [PhAc-Tyr^1, D-Arg^2, Phe(pCl)^6, Har^9, 3-Pal^10, Abu^15, Nle^27, D-Arg^28, Har^29]hGH-RH(1-29)NH2 [Peptide 40] | 30 % of control |
| [PhAc-D-Arg^0, D-Arg^2, Phe(pCl)^6, Arg^9, Abu^15, Nle^27, D-Arg^28, Har^29]hGH-RH(1-29)NH2 [Peptide 19] | 74 % of control |
| [Hca-Tyr^1, D-Arg^2, Phe(pCl)^6, Har^9, Tyr(Me)^10, Abu^15, Nle^27, D-Arg^28, Har^29, Agm^30]hGH-RH(1-30) [Peptide 59] | 76 % of control and 47 % of control |
| [HOOC(CH2)4CO-Tyr^1, D-Arg^2, Phe(pCl)^6, Arg^9, Abu^15, Nle^27, D-Arg^28, Har^29]hGH-RH(1-29)NH2 [Peptide 3] | 149 % of control |
| [PhAc-Arg^0, D-Arg^2, Phe(pCl)^6, Arg^9, Abu^15, Nle^27, D-Arg^28, Har^29]hGH-RH(1-29)NH2 [Peptide 18] | 63 % of control |

From patent US7452865B2, “Antagonistic analogs of GH RH (2003)” (The Administrare's of the Tulane Educational Fund, priority 2004, dated 2008)
